Structures can show the parent of a compound that is named as a salt.
Columns and labels:
c-fms = c-fms (Homo sapiens (Human), UniProt P07333); experiment: Autophosphorylation fluorescence polarization competition immunoassay for c-fms inhibition; format: biochemical; conditions: averages of three independent measurements; table head says 1 nM c-fms, method says 10 nM c-fms, 1 mM ATP; read-out: 1 nM c-fms; peptide Pi assay IC-50
Protocol: Fluorescence Polarization Competition Immunoassay
The assay buffer used was 100 mM 4-(2-hydroxyethyl)piperazine 1-ethanesulfonic acid (HEPES), pH 7.5, 1 mM 1,4-dithio-DL-threitol (DTT), 0.01% (v/v) Tween-20. Compounds were diluted in assay buffer containing 4% dimethylsulfoxide (DMSO) just prior to the assay. To each well, 5 μL of compound were added followed by the addition of 3 μL of a mix containing 33 nM c-fms (Johnson & Johnson PRD) and 16.7 mM MgCl2 (Sigma) in assay buffer. The kinase reaction was initiated by adding 2 μL of 5 mM ATP (Sigma) in assay buffer. […] Control reactions were ran in each plate: in positive and negative control wells, assay buffer (made 4% in DMSO) was substituted for the compound; in addition, positive control wells received 1.2 μL of 50 mM ethylenediaminetetraaceticacid (EDTA).
The plates were incubated at room temperature for 45 min. At the end of the incubation, the reaction was quenched with 1.2 μL of 50 mM EDTA (EDTA was not added to the positive control wells at this point; see above). Following a 5-min incubation, each well received 10 μL of a 1:1:3 mixture of anti-phosphotyrosine antibody, 10×, PTK green tracer, 10× (vortexed), FP dilution buffer, respectively (all from PanVera, cat. #P2837). The plate was covered, incubated for 30 min at room temperature and the fluorescence polarization was read on the Analyst. The instrument settings were: 485 nm excitation filter; 530 nm emission filter; Z height: middle of well; G factor: 0.93. […] The reported IC50 values are averages of three independent measurements.

[1] = tested on: mouse bone-marrow derived macrophages (BMDM); experiment: CSF-1-driven mouse bone-marrow derived macrophages proliferation assay (BrDU incorporation); format: cell-based; conditions: Mus musculus, BMDM, 30 hrs culture, read-out: mCSF driven proliferation BMDM (Mouse) IC-50
Protocol: CSF-1-Driven Mouse Bone-Marrow Derived Macrophages Assay
Macrophages are derived by culturing mouse bone marrow in alpha-MEM supplemented with 10% FCS and 50 ng/ml recombinant mouse CSF-1 in bacteriologic dishes. On the sixth day, macrophages are detached from dishes, washed, and resuspended to 0.05 million cells/ml in alpha-MEM containing 10% FCS. One hundred ul of cell suspension are distributed per well into 96 well culture plates. Wells are further supplemented with the addition of 50 ul media containing 15 ng/ml CSF-1, 3 uM Indomethacin, and 3× of a dilution series of test compounds. The cells are cultured for 30 hrs at 37 degrees and 5% CO2. During the final six hours, cultures are supplemented with an additional 30 ul of media containing a 1:500 dilution of bromodeoxyuridine (BrDU). At the end of the culture period, the plates are spun at 1000 RPM for 1 minute and 130 ul of media is removed with a pipet and replaced with 150 ul of fixative solution for 1 hour @ room temperature. The fixative is then dispelled from the plates and the plates allowed to air dry. Incorporation of BrDU into the fixed, dried cells is quantified using a specific ELISA.

Chain of c-fms (P07333 20-972): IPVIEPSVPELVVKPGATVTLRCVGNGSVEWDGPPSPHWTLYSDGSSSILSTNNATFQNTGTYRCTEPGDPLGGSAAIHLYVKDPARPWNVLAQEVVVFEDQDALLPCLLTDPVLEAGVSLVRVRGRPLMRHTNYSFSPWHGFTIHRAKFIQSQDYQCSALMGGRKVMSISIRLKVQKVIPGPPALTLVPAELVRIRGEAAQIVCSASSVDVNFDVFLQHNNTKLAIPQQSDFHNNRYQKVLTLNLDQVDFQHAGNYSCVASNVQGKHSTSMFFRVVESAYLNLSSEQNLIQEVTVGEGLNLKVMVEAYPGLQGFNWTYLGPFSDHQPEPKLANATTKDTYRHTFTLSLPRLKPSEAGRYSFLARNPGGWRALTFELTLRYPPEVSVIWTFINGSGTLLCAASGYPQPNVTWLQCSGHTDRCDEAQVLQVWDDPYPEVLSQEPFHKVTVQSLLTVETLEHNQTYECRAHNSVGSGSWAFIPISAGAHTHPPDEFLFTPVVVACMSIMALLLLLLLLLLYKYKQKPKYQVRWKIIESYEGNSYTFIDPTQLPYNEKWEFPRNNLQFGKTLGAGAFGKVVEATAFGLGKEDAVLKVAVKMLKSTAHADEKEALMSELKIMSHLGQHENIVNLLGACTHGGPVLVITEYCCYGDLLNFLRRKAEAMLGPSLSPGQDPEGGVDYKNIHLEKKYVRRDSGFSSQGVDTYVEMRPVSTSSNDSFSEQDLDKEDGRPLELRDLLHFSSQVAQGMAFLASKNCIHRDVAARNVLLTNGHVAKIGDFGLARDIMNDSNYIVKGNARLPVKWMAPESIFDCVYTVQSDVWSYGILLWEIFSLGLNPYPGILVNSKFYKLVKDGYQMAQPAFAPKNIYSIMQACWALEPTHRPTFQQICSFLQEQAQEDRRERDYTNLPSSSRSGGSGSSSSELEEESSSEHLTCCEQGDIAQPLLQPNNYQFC

SMILES	IC50 (c-fms)	IC50 [1]
CC1(C)CC=C(c2cc(C3(O)CCOCC3)ccc2NC(=O)c2ncc(C#N)[nH]2)CC1 [Example 1, 5-Cyano-1H-imidazole-2-carboxylic acid [2-(4,4-dimethyl-cyclohex-1-enyl)-4-(4-hydroxy-tetrahydro-pyran-4-yl)-phenyl]-amide]	0.7 nM	4 nM
CN(C)CCOC1(c2ccc(NC(=O)c3ncc(C#N)[nH]3)c(C3=CCC(C)(C)CC3)c2)CCOCC1 [Example 2, 5-Cyano-1H-imidazole-2-carboxylic acid [4-[4-(2-dimethylamino-ethoxy)-tetrahydro-pyran-4-yl]-2-(4,4-dimethyl-cyclohex-1-enyl)-phenyl]-amide trifluoroacetic acid salt]	0.42 nM	2.2 nM
CC1(C)CC=C(c2cc(C3(OCC(=O)O)CCOCC3)ccc2NC(=O)c2ncc(C#N)[nH]2)CC1 [Example 3, {4-[4-[(5-Cyano-1H-imidazole-2-carbonyl)-amino]-3-(4,4-dimethyl-cyclohex-1-enyl)-phenyl]-tetrahydro-pyran-4-yloxy}-acetic acid]	1.7 nM	–
COCCNC1(c2ccc(NC(=O)c3nc(C#N)c[nH]3)c(C3=CCC(C)(C)CC3)c2)CCOCC1 [Example 4, 4-Cyano-1H-imidazole-2-carboxylic acid {2-(4,4-dimethyl-cyclohex-1-enyl)-4-[4-(2-methoxy-ethylamino)-tetrahydro-pyran-4-yl]-phenyl}-amide]	1.8 nM	14 nM
CC1(C)CC=C(c2cc(C3(N)CCOCC3)ccc2NC(=O)c2ncc(C#N)[nH]2)CC1 [Example 5, 5-Cyano-1H-imidazole-2-carboxylic acid [4-(4-amino-tetrahydro-pyran-4-yl)-2-(4,4-dimethyl-cyclohex-1-enyl)-phenyl]-amide]	0.5 nM	2.4 nM
CC1(C)CC=C(c2cc(C3(N4CCOCC4)CCOCC3)ccc2NC(=O)c2ncc(C#N)[nH]2)CC1 [Example 6, 5-Cyano-1H-imidazole-2-carboxylic acid [2-(4,4-dimethyl-cyclohex-1-enyl)-4-(4-morpholin-4-yl-tetrahydro-pyran-4-yl)-phenyl]-amide]	1.6 nM	15 nM
CN(C)C1(c2ccc(NC(=O)c3ncc(C#N)[nH]3)c(C3=CCC(C)(C)CC3)c2)CCOCC1 [Example 7, 5-Cyano-1H-imidazole-2-carboxylic acid [4-(4-dimethylamino-tetrahydro-pyran-4-yl)-2-(4,4-dimethyl-cyclohex-1-enyl)-phenyl]-amide]	0.67 nM	11 nM
CN1CCN(C2(c3ccc(NC(=O)c4ncc(C#N)[nH]4)c(C4=CCC(C)(C)CC4)c3)CCOCC2)CC1 [Example 8, 5-Cyano-1H-imidazole-2-carboxylic acid {2-(4,4-dimethyl-cyclohex-1-enyl)-4-[4-(4-methyl-piperazin-1-yl)-tetrahydro-pyran-4-yl]-phenyl}-amide]	4 nM	15 nM
CC1(C)CC=C(c2cc(C3(N4CCNCC4)CCOCC3)ccc2NC(=O)c2ncc(C#N)[nH]2)CC1 [Example 9, 5-Cyano-1H-imidazole-2-carboxylic acid [2-(4,4-dimethyl-cyclohex-1-enyl)-4-(4-piperazin-1-yl-tetrahydro-pyran-4-yl)-phenyl]-amide]	1.9 nM	100 nM
CC1(C)CC=C(c2cc(C3(N4CCN(CC(=O)O)CC4)CCOCC3)ccc2NC(=O)c2ncc(C#N)[nH]2)CC1 [Example 10, (4-{4-[4-[(5-Cyano-1H-imidazole-2-carbonyl)-amino]-3-(4,4-dimethyl-cyclohex-1-enyl)-phenyl]-tetrahydro-pyran-4-yl}-piperazin-1-yl)-acetic acid trifluoroacetic acid salt]	7.9 nM	> 300 nM
CC1(C)CC=C(c2cc(C3(O)CCSCC3)ccc2NC(=O)c2nc(C#N)c[nH]2)CC1 [Example 11, 4-Cyano-1H-imidazole-2-carboxylic acid [2-(4,4-dimethyl-cyclohex-1-enyl)-4-(4-hydroxy-tetrahydro-thiopyran-4-yl)-phenyl]-amide]	2.9 nM	35 nM
CC1(C)CC=C(c2cc(C3(O)CCS(=O)(=O)CC3)ccc2NC(=O)c2nc(C#N)c[nH]2)CC1 [Example 12, 4-Cyano-1H-imidazole-2-carboxylic acid [2-(4,4-dimethyl-cyclohex-1-enyl)-4-(4-hydroxy-1,1-dioxo-hexahydro-1λ^6-thiopyran-4-yl)-phenyl]-amide]	1.1 nM	31 nM
CC(=O)N1CCC(N)(c2ccc(NC(=O)c3nc(C#N)c[nH]3)c(C3=CCC(C)(C)CC3)c2)CC1 [Example 13, 4-Cyano-1H-imidazole-2-carboxylic acid [4-(1-acetyl-4-amino-piperidin-4-yl)-2-(4,4-dimethyl-cyclohex-1-enyl)-phenyl]-amide acetic acid salt]	0.8 nM	8.1 nM
N#Cc1c[nH]c(C(=O)Nc2ccc(C3(O)CCSCC3)cc2C2=CCCCC2)n1 [Example 14, 4-Cyano-1H-imidazole-2-carboxylic acid [2-cyclohex-1-enyl-4-(4-hydroxy-tetrahydro-thiopyran-4-yl)-phenyl]-amide]	3.9 nM	9.5 nM
N#Cc1c[nH]c(C(=O)Nc2ccc(C3(O)CCS(=O)(=O)CC3)cc2C2=CCCCC2)n1 [Example 15, 4-Cyano-1H-imidazole-2-carboxylic acid [2-cyclohex-1-enyl-4-(4-hydroxy-1,1-dioxo-hexahydro-1λ^6-thiopyran-4-yl)-phenyl]-amide]	–	14 nM
COC(=O)C1(c2ccc(NC(=O)c3nc(C#N)c[nH]3)c(C3=CCC(C)(C)CC3)c2)CCOCC1 [Example 16, 4-[4-[(4-Cyano-1H-imidazole-2-carbonyl)-amino]-3-(4,4-dimethyl-cyclohex-1-enyl)-phenyl]-tetrahydro-pyran-4-carboxylic acid methyl ester]	0.67 nM	46 nM
CC1(C)CC=C(c2cc(C3(C(=O)O)CCOCC3)ccc2NC(=O)c2nc(C#N)c[nH]2)CC1 [Example 17, 4-[4-[(4-Cyano-1H-imidazole-2-carbonyl)-amino]-3-(4,4-dimethyl-cyclohex-1-enyl)-phenyl]-tetrahydro-pyran-4-carboxylic acid]	0.56 nM	> 300 nM
N#Cc1c[nH]c(C(=O)Nc2ccc(C3(C(=O)O)CCOCC3)cc2C2=CCCCC2)n1 [Example 18, 4-{4-[(4-Cyano-1H-imidazole-2-carbonyl)-amino]-3-cyclohex-1-enyl-phenyl}-tetrahydro-pyran-4-carboxylic acid]	3.6 nM	300 nM
N#Cc1c[nH]c(C(=O)Nc2ccc(C3(C(N)=O)CCOCC3)cc2C2=CCCCC2)n1 [Example 19, 4-Cyano-1H-imidazole-2-carboxylic acid [4-(4-carbamoyl-tetrahydro-pyran-4-yl)-2-cyclohex-1-enyl-phenyl]-amide]	1.8 nM	19 nM
N#Cc1c[nH]c(C(=O)Nc2ccc(C3(CO)CCOCC3)cc2C2=CCCCC2)n1 [Example 20, 4-Cyano-1H-imidazole-2-carboxylic acid [2-cyclohex-1-enyl-4-(4-hydroxymethyl-tetrahydro-pyran-4-yl)-phenyl]-amide]	1.8 nM	20 nM
N#Cc1c[nH]c(C(=O)Nc2ccc(C3(CN4CCOCC4)CCOCC3)cc2C2=CCCCC2)n1 [Example 21, 4-Cyano-1H-imidazole-2-carboxylic acid [2-cyclohex-1-enyl-4-(4-morpholin-4-ylmethyl-tetrahydro-pyran-4-yl)-phenyl]-amide]	1.6 nM	7.9 nM
CC1(C)CC=C(c2cc(C3(c4nn[nH]n4)CCOCC3)ccc2NC(=O)c2nc(C#N)c[nH]2)CC1 [Example 22, 4-Cyano-1H-imidazole-2-carboxylic acid {2-(4,4-dimethyl-cyclohex-1-enyl)-4-[4-(2H-tetrazol-5-yl)-tetrahydro-pyran-4-yl]-phenyl}-amide]	0.8 nM	> 300 nM
CC1(C)CC=C(c2cc(C3(C(=O)O)CCOCC3)ccc2NC(=O)c2cc(C#N)c[nH]2)CC1 [Example 23, 4-[4-[(4-Cyano-1H-pyrrole-2-carbonyl)-amino]-3-(4,4-dimethyl-cyclohex-1-enyl)-phenyl]-tetrahydro-pyran-4-carboxylic acid]	6.4 nM	> 300 nM

Reference: patent publication US9394289B2, “Inhibitors of c-fms kinase” (Janssen Pharmaceutica NV, priority 2006, dated 2016)
